Results reported in patent US20250205265A1, “ASPERULOSIDE AS AN AGENT FOR IMPROVING VASCULAR AND METABOLIC FUNCTION IN OBESITY: ROLE OF NRF2 ACTIVATION” (The Chinese University of Hong Kong, priority 2023, published 2025).
Entries after “also recorded” stand apart in the source; their conditions may differ.

Columns and labels:
HO-1 [1] = assay: Aortic en-face immunofluorescence staining of HO-1; design: species or system mice; settings: inhibition of Nrf2/ARE binding (ML385)
Procedure: (§1) After induction of obesity in C57BL/6 male mice fed with high fat diet for twelve weeks, they were treated daily with ASP (50 mg/kg) via oral gavage for seven weeks in vivo study. C57BL/6 mice aortae were used for ex vivo study and endothelial cells were used for in vitro study. Vascular function was determined by wire myograph. DHE and MitoSOX staining were used to detect ROS levels. QPCR, aortic en-face immunofluorescence staining, and Western blotting were used to analyze mRNA and protein expressions. Small interfering (si)RNA of Nrf2 and HO-1, inhibitors of Nrf2 (ML385, Cat. No.: HY-100523) and HO-1 (OB-24, HY-118487) were used to elucidate the mechanistic pathway of ASP's action.
(§2) After induction of obesity in C57BL/6 male mice fed with the high-fat diet for twelve weeks, they were treated daily with ASP (50 mg/kg) via oral gavage for seven weeks in vivo study. C57BL/6 mice aortae were used for ex vivo studies. Endothelial cells, HepG2 and primary adipocytes were used for in vitro studies. Vascular function was determined by wire myograph. H&E staining was employed for histological examination. Oil Red O staining was used to determine lipid droplets in tissues and cells. DHE and MitoSOX staining were used to detect ROS levels. QPCR, aortic en-face immunofluorescence staining, and Western blotting were used to analyze mRNA and protein expressions. ARE binding activity was determined by Dual luciferase reporter assay. Small interfering (si)RNA of Nrf2 and HO-1, inhibitors of Nrf2 (ML385, Cat. No.: HY-100523) and HO-1 (OB-24, HY-118487) were used to elucidate the mechanistic pathway of ASP's action.

[2] = test system: HO-1, SIRT1, SIRT6, and SOD2; assay: Real-time PCR of Nrf2 downstream genes in PA-treated HepG2 cells; format: cell-based
Procedure: as §2

SDHC = assay: Real-time PCR of SDHC in PA-treated HepG2 cells; format: cell-based; settings: PA-treated HepG2 cells when Nrf2 is inhibited
Procedure: as §2

[3] = test system: adipose tissues of obese mice; assay: Real-time PCR of adipose tissues of obese mice; format: in vivo
Procedure: as §2

[4] = test system: Nrf2/antioxidant responsive element (ARE); assay: ARE binding activity, luciferase reporter assay in endothelial cells; format: cell-based; settings: for endothelial Nrf2/ARE binding, higher than the binding to impaired endothelial cells: worded as embodiment, cf. FIG. 3D
Procedure: as §2

C57BL/6 mice aortae = assay: Ex vivo wire myograph, IL-1β-impaired EDRs in mouse aortas; settings: for EDRs: IL-1β
Procedure: as §1, §2

Nrf2 [5] = assay: Nrf2 nuclear translocation in palmitic acid-treated HepG2 cells; format: cell-based
Procedure: as §2

Nrf2 [6] = assay: Nrf2 nuclear translocation in endothelial cells; format: cell-based
Procedure: as §1, §2

HO-1 [7] = assay: Real-time PCR of HO-1 in obese mice aortas; format: in vivo
Procedure: as §1
as §2, with “QPCR, aortic en-face immunofluorescence staining, and Western blotting were used to analyze mRNA and protein expressions.” left out, “Small interfering (si)RNA of Nrf2 and HO-1, inhibitors of Nrf2 (ML385, Cat. No.: HY-100523) and HO-1 (OB-24, HY-118487) were used to elucidate the mechanistic pathway of ASP's action.” left out

VCAM-1 = assay: Real-time PCR of VCAM-1 in aortas of obese mice; format: in vivo
Procedure: as §1
as §2, with “QPCR, aortic en-face immunofluorescence staining, and Western blotting were used to analyze mRNA and protein expressions.” left out, “Small interfering (si)RNA of Nrf2 and HO-1, inhibitors of Nrf2 (ML385, Cat. No.: HY-100523) and HO-1 (OB-24, HY-118487) were used to elucidate the mechanistic pathway of ASP's action.” left out

[8] = perirenal adipose tissues in obese mice
[9] = visceral adipose tissues in obese mice
[10] = obese mice aortae, ASP 50 mg/kg oral gavage daily for seven weeks

Asperuloside
endothelial HO-1 expression (en-face immunofluorescence) (HO-1 [1]): inhibition of Nrf2/ARE binding eliminates the endothelial upregulation of HO-1 by ASP treatment
mRNA expression of HO-1, SIRT1, SIRT6, and SOD2 ([2]; 250 μmol/L PA-treated HepG2 cells for 16 hours): dose-dependently increases mRNA expression of HO-1, SIRT1, SIRT6, and SOD2
increase of HO-1 mRNA expression ([2]; palmitic acid-impaired HepG2 cells, cf. FIG. 13F): at least 2 fold
mRNA expression levels of SDHC (SDHC): fails to upregulate the mRNA expression levels of SDHC
Cd36 upregulation ([3]; perirenal adipose tissues): inhibited Cd36 upregulation
Acox1 expression [3, 8]: increased
Nprc expression [3, 8]: downregulates Nprc expression
mRNA expression levels of Srebp1 and Acc2 [3, 8]: decreases mRNA expression levels of Srebp1 (FIG. 15A) and Acc2
expression levels of Il-6 and Il-1β ([3]; perirenal adipose tissues of obese mice): reverses enhanced expression levels of Il-6 (FIG. 16A) and Il-1β
Cd36 upregulation ([3]; subcutaneous adipose tissues): inhibited Cd36 upregulation
Hsl expression ([3]; subcutaneous adipose tissues in obese mice): upregulates Hsl expression
expression of F4/80 ([3]; subcutaneous adipose tissues of obese mice): reverses the elevated expression of F4/80
Nprc expression [3, 9]: decreased Nprc expression
Tnfα expression [3, 9]: decreases Tnfα expression
upregulation of Cd11c, Cd11b, and F4/80 ([3]; visceral adipose tissues of obese mice): suppresses the upregulation of Cd11c (FIG. 20A), Cd11b (FIG. 20B), and F4/80
endothelial Nrf2/ARE binding, higher than the binding to impaired endothelial cells ([4]; 10 μm ASP): about 50%
endothelial Nrf2/ARE binding, higher than the binding to impaired endothelial cells ([4]; 20 μm ASP): ~60%
endothelial Nrf2/ARE binding, higher than the binding to impaired endothelial cells ([4]; 40 μm ASP): ~70%
ARE binding activity ([4]; luciferase reporter assay): increased ARE binding activity
EDRs (C57BL/6 mice aortae; ML385-treated aortas): fails to reverse impairment
EDRs (C57BL/6 mice aortae; endothelial-cell specific Nrf2 knockdown murine aortas): fails to reverse the impairment
acetylcholine-induced EDRs (C57BL/6 mice aortae; IL-1β-treated aortas, ex vivo): prevents IL-1-induced impairment in acetylcholine-induced EDRs; also recorded: prevents IL-1β-impaired EDRs; also recorded: rescued IL-1β-impairs EDRs
acetylcholine-induced EDRs (C57BL/6 mice aortae; IL-1β-treated, HO-1-inhibited (OB-24) aortas): fails to rescue the impairment; also recorded: failed to prevent endothelial dysfunction in HO-1 inhibited aortae
Nrf2 nuclear translocation (immunofluorescence) (Nrf2 [5]): stimulates Nrf2 nuclear translocation in palmitic acid-treated HepG2 cells
Nrf2 nuclear expression (western blotting) (Nrf2 [6]; 40 μmol/L ASP, endothelial cells under basal conditions): increases Nrf2 nuclear expressions
Nrf2 nuclear translocation (western blotting) (Nrf2 [6]; endothelial cells): dose-dependently stimulates Nrf2 nuclear translocation; also recorded: increased nuclear Nrf2
increase of HO-1 expression (HO-1 [7]; [10]): about 1.5 fold
HO-1 mRNA expression level (HO-1 [7]; obese mice aortas, real-time PCR): increases mRNA expression level of Nrf2 (FIG. 1G) and HO-1
VCAM-1 mRNA expression (VCAM-1; aortas of obese mice, real-time PCR): decreases elevated expression of VCAM-1 and ICAM-1 mRNA
reduction of VCAM-1 expression (VCAM-1; [10]): about 2 fold
